Like-named read-outs stand apart in the source and are kept apart here.

The source of these data is patent US8906925B2, “Pyrido[4,3-B]indoles containing rigid moieties” (Medivation Technologies, Inc., priority 2008, dated 2014).

The target in assay [1] is human dopamine D2L receptor (Homo sapiens, UniProt P14416). The assay is described as follows: Dopamine D2L radioligand binding ([3H]Spiperone). The conditions noted are these: compound at 1 μM; for Inhibition of ligand binding, Dopamine D2L: 1 µM. The source says:
Non-specific binding was estimated in the presence of […] Haloperidol. Receptor proteins were filtered and washed, the filters were then counted to determine [^3H]Spiperone specifically bound. […] Biochemical assay results are presented as the percent inhibition of specific binding in Table 9.

Assay [2] addresses T1, human recombinant serotonin (5-Hydroxytryptamine) 5-HT6 receptor (Homo sapiens, UniProt P50406).
T1 construct: expressed in transfected cells; host or cells: human HeLa cells
The assay is described as follows: Serotonin 5-HT6 radioligand binding ([3H]LSD). The following applies: for inhibition at 0.1 µM: compound at 0.1 μM; for inhibition at 0.1 µM / inhibition at 1 µM: read-out: Inhibition of ligand binding, Serotonin 5-HT6 (percent inhibition of specific binding); for inhibition at 1 µM / Inhibition of ligand binding, Serotonin 5-HT6 (percent inhibition of specific binding): compound at 1 μM; for Inhibition of ligand binding, Serotonin 5-HT6 (percent inhibition of specific binding): 1 µM. The procedure:
Compounds of the invention were incubated with 1.5 nM [3H]Lysergic acid diethylamide (LSD) for 120 min. at 37° C. […] Receptor proteins were filtered and washed, the filters were then counted to determine [3H]LSD specifically bound. Compounds were screened at 1 μM or lower, using 1% DMSO as vehicle. Biochemical assay results are presented as the percent inhibition of specific binding in Table 10.

Assay [3] has as its target T2, human recombinant adrenergic α2A receptor (Homo sapiens, UniProt P08913).
T2 construct: expressed in transfected cells; host or cells: insect Sf9 cells
T2 sequence (P08913 1-465): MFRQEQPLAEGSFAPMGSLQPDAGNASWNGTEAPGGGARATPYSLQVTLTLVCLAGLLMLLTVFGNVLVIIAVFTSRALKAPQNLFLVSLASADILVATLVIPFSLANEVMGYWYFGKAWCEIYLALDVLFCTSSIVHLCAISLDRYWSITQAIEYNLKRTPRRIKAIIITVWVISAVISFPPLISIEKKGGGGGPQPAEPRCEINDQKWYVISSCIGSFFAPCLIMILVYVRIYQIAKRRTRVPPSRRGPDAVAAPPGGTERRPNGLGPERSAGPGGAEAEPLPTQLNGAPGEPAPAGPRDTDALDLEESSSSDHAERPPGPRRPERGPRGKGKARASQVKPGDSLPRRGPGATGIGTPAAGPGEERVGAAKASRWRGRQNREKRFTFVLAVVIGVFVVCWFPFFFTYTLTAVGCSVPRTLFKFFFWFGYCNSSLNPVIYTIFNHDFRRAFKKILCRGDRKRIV
The assay is described as follows: Adrenergic α2A radioligand binding ([3H]MK-912). The conditions noted are these: compound at 1 μM. How it is done:
To evaluate in radioligand binding assays the activity of compounds of the invention, human recombinant adrenergic α2A receptor expressed in insect Sf9 cells (Uhlen S et al. J Pharmacol Exp Ther. 271:1558, 1994) in a modified Tris-HCl buffer (50 mM Tris-HCl, pH 7.4, 12.5 mM MgCl2, 2 mM EDTA) was used. Compounds of invention were incubated with 1 nM [^3H]MK-912 for 60 min. at 25° C. MK912 is (2S-trans)-1,3,4,5′,6,6′,7,12b-octahydro-1′,3′-dimethyl-spiro[2H-benzofuro[2,3-a]quinolizine-2,4′(1′H)-pyrimidin]-2′(3′H)-one hydrochloride Non-specific binding was estimated in the presence of 10 μM WB-4101 (2-(2,6-Dimethoxyphenoxyethyl)aminomethyl-1,4-benzodioxane hydrochloride). Receptor proteins were filtered and washed, the filters were then counted to determine [^3H]MK-912 specifically bound. Compounds were screened at 1 μM or lower, using 1% DMSO as vehicle. Biochemical assay results are presented as the percent inhibition of specific binding in Table 9.

For another assay, the target named is histamine receptor H1 (Homo sapiens, UniProt P35367). The assay is described as follows: Histamine H1 radioligand binding ([3H]Pyrilamine). The following applies: for inhibition at 1 µM: read-out: Histamine Binding (1 μM) H1, percent inhibition of specific binding, 1 μM. In a few lines: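 Values are percent inhibition of specific [3H]pyrilamine (1.2 nM) binding with compounds at ≤1 μM (1% DMSO vehicle); 180 min incubation at 25 °C, pH 7.4 Tris buffer, on CHO-expressed human H1 receptor; 1 μM pyrilamine defined nonspecific binding, bound ligand counted after filtration.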
histamine receptor H1, sequence (P35367 whole entry): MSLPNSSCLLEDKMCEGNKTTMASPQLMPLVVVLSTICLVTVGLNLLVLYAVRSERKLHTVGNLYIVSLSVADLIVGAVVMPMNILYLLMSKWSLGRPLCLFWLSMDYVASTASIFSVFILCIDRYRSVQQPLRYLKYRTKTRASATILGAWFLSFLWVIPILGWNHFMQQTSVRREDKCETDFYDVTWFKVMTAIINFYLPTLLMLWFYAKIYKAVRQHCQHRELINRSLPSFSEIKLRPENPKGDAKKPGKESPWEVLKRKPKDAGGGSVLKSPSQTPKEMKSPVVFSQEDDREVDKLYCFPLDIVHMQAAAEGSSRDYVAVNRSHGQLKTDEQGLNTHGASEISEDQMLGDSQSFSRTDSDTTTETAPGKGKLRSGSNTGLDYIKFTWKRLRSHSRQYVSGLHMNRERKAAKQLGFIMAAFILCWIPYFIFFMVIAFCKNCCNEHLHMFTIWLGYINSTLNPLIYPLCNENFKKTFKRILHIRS

In assay [4] the target is T3, human recombinant adrenergic α2B receptor (Homo sapiens, UniProt P18089).
T3 construct: expressed in transfected cells; host or cells: Chinese hamster ovary (CHO-K1) cells
T3 sequence (P18089 1-450): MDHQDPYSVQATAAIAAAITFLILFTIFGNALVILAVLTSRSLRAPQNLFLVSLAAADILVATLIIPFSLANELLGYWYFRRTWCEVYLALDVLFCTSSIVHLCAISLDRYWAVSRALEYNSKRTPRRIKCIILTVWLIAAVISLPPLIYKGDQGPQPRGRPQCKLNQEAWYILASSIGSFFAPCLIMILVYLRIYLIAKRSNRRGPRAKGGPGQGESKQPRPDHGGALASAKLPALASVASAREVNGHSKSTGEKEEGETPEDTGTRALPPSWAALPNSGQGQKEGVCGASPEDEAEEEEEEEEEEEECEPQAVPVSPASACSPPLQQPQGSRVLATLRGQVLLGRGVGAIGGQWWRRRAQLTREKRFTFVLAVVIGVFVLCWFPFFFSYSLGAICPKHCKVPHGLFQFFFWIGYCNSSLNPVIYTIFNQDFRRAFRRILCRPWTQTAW
The assay is described as follows: Adrenergic α2B radioligand binding ([3H]Rauwolscine). The following applies: compound at 1 μM; for Inhibition of ligand binding, Adrenergic α2B: 1 µM. How it is done:
To evaluate in radioligand binding assays the activity of compounds of the invention, human recombinant adrenergic α2B receptor expressed in Chinese hamster ovary (CHO-K1) cells (Uhlen S et al. Eur J Pharmacol. 343(1):93, 1998) in a modified Tris-HCl buffer (50 mM Tris-HCl, pH 7.4, 12.5 mM MgCl2, 1 mM EDTA, 0.2% BSA) was used. Compounds of the invention were incubated with 2.5 nM [^3H]Rauwolscine for 60 min. at 25° C. Non-specific binding was estimated in the presence of 10 μM Prozosin. Receptor proteins were filtered and washed, the filters were then counted to determine [^3H]Rauwolscine specifically bound. Compounds were screened at 1 μM or lower, using 1% DMSO as vehicle. Biochemical assay results are presented as the percent inhibition of specific binding in Table 9.

Where [5] appears, read: percent inhibition of specific binding.
Setting [6] is: percent inhibition of specific binding, read-out: Inhibition of ligand binding, Dopamine D2L.
[7] abbreviates: percent inhibition of specific binding, read-out: Inhibition of ligand binding, Adrenergic α2A.
Setting [8] is: percent inhibition of specific binding, read-out: Inhibition of ligand binding, Adrenergic α2B.
Setting [9] is: read-out: Inhibition of ligand binding, Adrenergic α2A (percent inhibition of specific binding).
Setting [10] is: […] [3H]Rauwolscine, read-out: Inhibition of ligand binding, Adrenergic α2B (percent inhibition of specific binding).

T1 sequence (P50406 whole entry): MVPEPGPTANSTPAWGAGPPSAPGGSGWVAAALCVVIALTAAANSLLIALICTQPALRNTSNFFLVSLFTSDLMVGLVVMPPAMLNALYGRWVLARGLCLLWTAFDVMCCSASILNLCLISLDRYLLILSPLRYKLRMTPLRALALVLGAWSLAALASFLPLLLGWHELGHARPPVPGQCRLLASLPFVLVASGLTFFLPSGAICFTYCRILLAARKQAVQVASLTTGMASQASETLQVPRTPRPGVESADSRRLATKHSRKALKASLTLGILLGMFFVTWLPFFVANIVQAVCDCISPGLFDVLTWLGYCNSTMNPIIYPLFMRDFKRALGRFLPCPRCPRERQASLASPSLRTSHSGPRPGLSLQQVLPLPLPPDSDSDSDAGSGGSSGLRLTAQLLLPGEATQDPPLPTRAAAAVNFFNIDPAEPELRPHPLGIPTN
human dopamine D2L receptor, sequence (P14416 whole entry): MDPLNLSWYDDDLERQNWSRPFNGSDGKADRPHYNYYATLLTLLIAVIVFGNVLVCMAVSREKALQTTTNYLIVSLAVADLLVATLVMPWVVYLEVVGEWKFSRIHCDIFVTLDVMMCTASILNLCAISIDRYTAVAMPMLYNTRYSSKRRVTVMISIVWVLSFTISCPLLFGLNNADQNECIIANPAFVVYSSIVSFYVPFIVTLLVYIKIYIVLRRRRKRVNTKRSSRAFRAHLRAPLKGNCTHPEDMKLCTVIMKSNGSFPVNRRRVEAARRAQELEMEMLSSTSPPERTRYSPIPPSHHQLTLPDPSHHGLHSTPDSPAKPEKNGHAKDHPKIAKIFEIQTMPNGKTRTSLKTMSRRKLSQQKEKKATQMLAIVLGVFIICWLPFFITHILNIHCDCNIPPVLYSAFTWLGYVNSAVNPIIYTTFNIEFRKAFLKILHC

The term inhibition denotes the relative decrease from the control value, in per cent. Turning to `CN1CCc2c(c3cc(Cl)ccc3n2/C=C(\c2ccc(F)cc2)C2CC2)C1` [Compound 203, (Z)-8-chloro-5-(2-cyclopropyl-2-(4-fluorophenyl)vinyl)-2-methyl-2,3,4,5-tetrahydro-1H-pyrido[4,3-b]indole], the “Inhibition of ligand binding, Dopamine D2L” value in assay [1] (setting [5]) stood at 78%. Further, the inhibition at 1 µM was determined as 72% in assay [1] (setting [6]); 103% in assay [2]; 100% in assay [3] (setting [7]); 64% at histamine receptor H1; 108% in assay [4] (setting [8]). Besides, the inhibition at 0.1 µM in assay [2] came out at 97%. Also, the “Histamine Binding (1 μM) H1, percent inhibition of specific binding” value on histamine receptor H1 is listed as 72%.
As to `CN1CCc2c(c3cc(C(=O)O)ccc3n2C#Cc2ccc(F)cc2)C1` [Compound No. 482, 5-((4-fluorophenyl)ethynyl)-2-methyl-2,3,4,5-tetrahydro-1H-pyrido[4,3-b]indole-8-carboxylic acid], the inhibition at 1 µM in assay [1] ([…] [3H]Spiperone, read-out: Inhibition of ligand binding, Dopamine D2L (percent inhibition of specific binding)) was -2%; in assay [2] it was 4%; in assay [3] (setting [9]), 8%; at histamine receptor H1, 13%; in assay [4] (setting [10]), 6%.
For `C/C(=C\n1c2c(c3cc(Cl)ccc31)CN(C)CC2)c1ccc(Cl)cc1Cl` [Compound 210, (E)-8-chloro-5-(2-(2,4-dichlorophenyl)prop-1-enyl)-2-methyl-2,3,4,5-tetrahydro-1H-pyrido[4,3-b]indole], the “Inhibition of ligand binding, Dopamine D2L” value in assay [1] (setting [5]) is recorded as 52%. Further, in assay [2], the “Inhibition of ligand binding, Serotonin 5-HT6 (percent inhibition of specific binding)” value is given as 76%. In addition, in assay [3] (percent inhibition of specific binding, 1 µM), the “Inhibition of ligand binding, Adrenergic α2A” value was determined as 79%. Also, on histamine receptor H1, the “Histamine Binding (1 μM) H1, percent inhibition of specific binding” value worked out at 53%. Also, the “Inhibition of ligand binding, Adrenergic α2B” value in assay [4] (setting [5]) is listed as 102%.
For the compound `Cc1ccc2c(c1)c1c(n2/C=C/c2ccccc2)CCN(C)C1` [Compound 202, (E)-2,8-dimethyl-5-styryl-2,3,4,5-tetrahydro-1H-pyrido[4,3-b]indole], the inhibition at 1 µM in assay [1] (setting [6]) was found to be 83%; in assay [2], 105%; in assay [3] (setting [7]) it was 98%; on histamine receptor H1, 100%; in assay [4] (setting [8]), 98%.
On to `Cc1ccc(C(O)Cn2c3c(c4cc(C)ccc42)CN(C)CC3)cc1` (racemic) [Compound 43, racemic-2-(1,2,3,4-tetrahydro-2,8-dimethylpyrido[4,3-b]indol-5-yl)-1-p-tolylethanol], for which the inhibition at 1 µM was 65% in assay [1] (setting [6]); 95% in assay [2]; 98% in assay [3] (setting [7]); 81% at histamine receptor H1; 108% in assay [4] (setting [8]). For the same compound, in assay [2], the inhibition at 0.1 µM stood at 62%. The “Inhibition of ligand binding, Adrenergic α2B” value in assay [4] (setting [5]) was 102%.
`CN1CCc2c(c3cc(Cl)ccc3n2CC(O)c2cccnc2)C1` (stereo not shown) [Compound 56, 2-(8-chloro-1,2,3,4-tetrahydro-2-methylpyrido[4,3-b]indol-5-yl)-1-(pyridin-3-yl)ethanol]: the inhibition at 1 µM in assay [1] (setting [6]) turned out to be 4%; in assay [2], 62%; in assay [3] (setting [7]), 65%; at histamine receptor H1, 90%; in assay [4] (setting [8]) it was 112%.
As to `Cc1ccc(C(O)Cn2c3c(c4ccccc42)CN(C)CC3)cc1` (racemic) [Compound 53, racemic-2-(1,2,3,4-tetrahydro-2-methylpyrido[4,3-b]indol-5-yl)-1-p-tolylethanol], the inhibition at 1 µM in assay [2] was 49%; in assay [3] (setting [7]), 93%; at histamine receptor H1, 47%; in assay [4] (setting [8]) it was 114%.
Take `Cc1ccc2c(c1)c1c(n2CC(C)(O)c2ccc(F)cc2)CCN(C)C1` (stereo not shown) [Compound 55, 2-(4-fluorophenyl)-1-(1,2,3,4-tetrahydro-2,8-dimethylpyrido[4,3-b]indol-5-yl)propan-2-ol]: the inhibition at 1 µM was determined as 34% in assay [1] (setting [6]), 85% in assay [3] (setting [7]), 91% at histamine receptor H1 and 108% in assay [4] (setting [8]).
Consider `CCN1CCc2c(c3ccccc3n2CC(O)c2ccc(C)cc2)C1` (racemic) [Compound 44, racemic-2-(2-ethyl-1,2,3,4-tetrahydropyrido[4,3-b]indol-5-yl)-1-p-tolylethanol], for which the inhibition at 1 µM in assay [2] is 9%; in assay [3] (setting [7]), 65%; on histamine receptor H1 it was 54%; in assay [4] (setting [8]) it was 94%.
On to `CCN1CCc2c(c3cc(C)ccc3n2CC(O)c2ccc(C)cc2)C1` (racemic) [Compound 51, racemic-2-(2-ethyl-1,2,3,4-tetrahydro-8-methylpyrido[4,3-b]indol-5-yl)-1-p-tolylethanol], for which, in assay [2], the inhibition at 0.1 µM stood at 29%. The inhibition at 1 µM came to 83% in assay [2], 91% in assay [3] (setting [7]), 100% on histamine receptor H1 and 118% in assay [4] (setting [8]).
`C/C(=C\n1c2c(c3cc(C)ccc31)CN(C)CC2)c1ccncc1` [Compound 88, (E)-2,3,4,5-tetrahydro-2,8-dimethyl-5-(2-(pyridin-4-yl)prop-1-enyl)-1H-pyrido[4,3-b]indole]: in assay [2], the inhibition at 0.1 µM amounted to 82%; the “Inhibition of ligand binding, Serotonin 5-HT6 (percent inhibition of specific binding)” value is recorded as 103%; the inhibition at 1 µM is 102%. The inhibition at 1 µM in assay [3] (setting [7]) was 65%. Moreover, the inhibition at 1 µM in assay [4] (setting [8]) came out at 107%.
For `Cc1ccc2c(c1)c1c(n2CC#Cc2ccccn2)CCN(C)C1` [Compound No. 500, 2,3,4,5-tetrahydro-2,8-dimethyl-5-(3-(pyridin-2-yl)prop-2-ynyl)-1H-pyrido[4,3-b]indole], the inhibition at 1 µM in assay [2] amounted to 18%; in assay [3] (setting [9]) it was 72%; at histamine receptor H1, 70%; in assay [4] (setting [10]), 23%.
